Laboratory results taken from PubChem BioAssay AID1918991 (Molecular Pharmacology Branch, DTP, NCI, 2023).
“And” between values parts separate entries of the source, which are not always exact repeats. Equal values may be shown once.

System: 186277-243-T-J2-PDC complex spheroid growth
Assay: Anticancer human tumor 186277-243-T-J2-PDC patient-derived colon adenocarcinoma cell line growth inhibition [AhR]
Details: for viability, T/C: stronger effect = lower value
Description: Multicellular complex tumor spheroid response to aryl hydrocarbon receptor antagonists in combination with a variety of drugs and investigational agents in selected tumor cell lines
The current study was undertaken to assess response to aryl hydrocarbon receptor antagonists in combination with standard-of-care drugs and investigational agents in solid tumor complex spheroid models. Complex spheroids include a stromal component modeled by human endothelial cells (HUVEC) and fibroblasts modeled by human mesenchymal stem cells (MSCs). The concentration ranges selected for each drug and investigational agent were based upon clinically achievable concentrations if the clinical Cmax of the agent was known.
Compounds. The drugs and investigational agents: BAY 2416964 (NSC825713), GNF351 (NSC835774), CH-223191 (NSC835775), CPI-455 (NSC825282), aza-TdCyd (NSC777586), decitabine (NSC127716), belinostat (NSC758774), entinostat (NSC756642), pevonedistat (NSC761192), tazemetostat (NSC777109), talazoparib (NSC765396), olaparib (NSC753686), selinexor (NSC780203), nedisertib (M3814, NSC802822), bortezomib (NSC756655), venetoclax (NSC766270), doxorubicin (NSC123127), elimusertib (BAY189344, NSC800525), ceralasertib (AZD6738, NSC777638), TAK-243 (NSC785004), alisertib (NSC759677), etoposide (NSC141540), topotecan (NSC609699), eribulin (NSC707389), gemcitabine (NSC613327), carboplatin (NSC241240), cisplatin (NSC119875), and SN-38 (NSC673596) were obtained from the National Cancer Institute (NCI) Developmental Therapeutics Program Chemical Repository (32). The FDA-approved anticancer drug set is available from the Developmental Therapeutics Program at https://dtp.cancer.gov/organization/dscb/obtaining/available plates.htm. […] The stock solutions were prepared in dimethyl sulfoxide (DMSO, Sigma-Aldrich, St. Louis, MO, cat. D2650), except for the platinum compounds which were prepared in saline (Quality Biological, Gaithersburg, MD, cat. 114-055-101), at 800-fold the tested concentration and stored at -70 degrees C prior to their use. All drugs and investigational agents were tested over a range starting from a high concentration at or near the clinical Cmax and decreasing in half-log increments. If the clinical Cmax for an agent had not been determined, the highest concentration tested was 10 microM (Table 1).
Cell Culture. All cells were maintained in an incubator at 37 degrees C and 5% CO2 with 95% humidity. The PDC lines were cultured according to standard operating procedures established by the NCI PDMR (https://pdmr.cancer.gov). Briefly, all PDCs were thawed and cultured in Matrigel-coated flasks prepared with a working solution of 1X Ham's F-12 nutrient mix, without supplementation (Invitrogen, Waltham, MA, cat. 11765054), 100 U/mL penicillin-streptomycin (Invitrogen, cat. 15140122), and 2.5% Matrigel (Corning Inc., Corning, NY, cat. 354248) for the first three passages. All PDCs were cultured in complete DMEM/F-12 media containing advanced DMEM/F-12 (Invitrogen, cat. 12634028), 4.9% defined fetal bovine serum, heat inactivated (HyClone Laboratories Inc., Logan, UT, cat. SH30070.03HI), 389 ng/mL hydrocortisone (Sigma-Aldrich, cat. H4001), 9.7 ng/mL human EGF recombinant protein (Invitrogen, cat. PHG0313), 23.4 microg/mL adenine (Sigma-Aldrich, cat. A2786), 97.3 U/mL penicillin-streptomycin (Invitrogen, cat. 15140122), 1.9 mM L-glutamine (Invitrogen, cat. 25030081), and 9.7 microM Y-27632 dihydrochloride (Tocris Bioscience, Bristol, United Kingdom, cat. 1254). The PDCs were cultured in complete DMEM/F12 media without 10 microM Y-27632 dihydrochloride for at least two passages prior to the screen. The established cell lines NCI-H1341 and […] were cultured in DMEM/F-12, HEPES (Invitrogen, cat. 11330032), 5% defined fetal bovine serum (HyClone Laboratories Inc., cat. SH30070.03), ITS premix universal culture supplement [insulin (5 microg/mL), transferrin (5 microg/mL), and selenious acid (5 ng/mL)] […]
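Note: spheroids exposed to compounds for seven days before the viability read.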
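Throughout, for viability, T/C: luminescent signal used as a stand-in for viable cell amount; 100% = DMSO vehicle control wells.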

With `CC1COCCN1c1cc(C2(S(C)(=N)=O)CC2)nc(-c2ccnc3[nH]ccc23)n1` (stereo not drawn) the viability, T/C (compound 0.0316 µM) was 102% and 98.7% and 97.3%, the viability, T/C (compound 0.1 µM) was 98% and 103% and 99% and the viability, T/C (compound 0.316 µM) was 99.5% and 92% and 73%. For the same molecule, the viability, T/C (compound 1 µM) was 106% and 89.6% and 47.1%, the viability, T/C (compound 3.16 µM) was 67.5% and 37.4% and 6.44% and the viability, T/C (compound 10 µM) was 8.92% and 13.3% and 3.14%. For the same molecule, the IC50 (curve of compound) was 4.45 µM and 2.39 µM and 0.779 µM.
For `Cc1cncc(-c2nc(NCCc3c[nH]c4ccccc34)c3ncn(C(C)C)c3n2)c1`, the viability, T/C (compound 0.316 µM) was 97.7% [middle of 20 runs].
`O=C(c1cc(Cc2n[nH]c(=O)c3ccccc23)ccc1F)N1CCN(C(=O)C2CC2)CC1` + Cc1cncc(-c2nc(NCCc3c[nH]c4ccccc34)c3ncn(C(C)C)c3n2)c1 gave an IC50 (curve of first compound, second compound 0.1 µM) of over 10 µM, an IC50 (curve of first compound, second compound 0.316 µM) of over 10 µM and an IC50 (curve of first compound, second compound 1 µM) of over 10 µM. For the same molecule, the IC50 (curve of first compound, second compound 3.16 µM) was over 10 µM, the IC50 (curve of first compound, second compound 10 µM) was under 0.0316 µM and the viability, T/C (second compound 0.1 µM, first compound 0.0316 µM) was 107%. It also gave a viability, T/C (second compound 0.1 µM, first compound 0.1 µM) of 110%, a viability, T/C (second compound 0.1 µM, first compound 0.316 µM) of 88.1% and a viability, T/C (second compound 0.1 µM, first compound 1 µM) of 110%. It also gave a viability, T/C (second compound 0.1 µM, first compound 3.16 µM) of 123%, a viability, T/C (second compound 0.1 µM, first compound 10 µM) of 123% and a viability, T/C (second compound 0.316 µM, first compound 0.0316 µM) of 108%. The viability, T/C (second compound 0.316 µM, first compound 0.1 µM) was 103%, the viability, T/C (second compound 0.316 µM, first compound 0.316 µM) was 96.5% and the viability, T/C (second compound 0.316 µM, first compound 1 µM) was 110%. For the same molecule, the viability, T/C (second compound 0.316 µM, first compound 3.16 µM) was 125%, the viability, T/C (second compound 0.316 µM, first compound 10 µM) was 130% and the viability, T/C (second compound 1 µM, first compound 0.0316 µM) was 97.6%. It also gave a viability, T/C (second compound 1 µM, first compound 0.1 µM) of 96.5%, a viability, T/C (second compound 1 µM, first compound 0.316 µM) of 100% and a viability, T/C (second compound 1 µM, first compound 1 µM) of 115%. It also gave a viability, T/C (second compound 1 µM, first compound 3.16 µM) of 125%, a viability, T/C (second compound 1 µM, first compound 10 µM) of 134% and a viability, T/C (second compound 3.16 µM, first compound 0.0316 µM) of 115%. The viability, T/C (second compound 3.16 µM, first compound 0.1 µM) was 110%, the viability, T/C (second compound 3.16 µM, first compound 0.316 µM) was 115% and the viability, T/C (second compound 3.16 µM, first compound 1 µM) was 116%. The viability, T/C (second compound 3.16 µM, first compound 3.16 µM) was 146%, the viability, T/C (second compound 3.16 µM, first compound 10 µM) was 130% and the viability, T/C (second compound 10 µM, first compound 0.0316 µM) was 48.2%. For the same molecule, the viability, T/C (second compound 10 µM, first compound 0.1 µM) was 44.3%, the viability, T/C (second compound 10 µM, first compound 0.316 µM) was 38.8% and the viability, T/C (second compound 10 µM, first compound 1 µM) was 41.5%. For the same molecule, the viability, T/C (second compound 10 µM, first compound 3.16 µM) was 28.5% and the viability, T/C (second compound 10 µM, first compound 10 µM) was 21.5%.
